# Where “and” joins values, the source holds several entries; their conditions need not be identical. Equal values may be shown once.
# Columns and labels:
# oil palm fruit [1] = details: postharvest application; cited from earlier work
# oil palm fruit [2] = assay: Field study of fruit abscission (cumulative loose fruit and loose mass) after a single bunch-directed preharvest spray; assay type: in vivo, oil palm (cross between Compact and Ghana); details: for Cumulative Loose Mass / % Difference with UTC (Cumulative Loose Fruit) / % Difference with UTC (Cumulative Loose Mass) / Cumulative Loose Fruit: single spray 100 mL/bunch; for Cumulative Loose Mass / % Difference with UTC (Cumulative Loose Fruit) / % Difference with UTC (Cumulative Loose Mass): 14 days; for % Difference with UTC (Cumulative Loose Fruit) / % Difference with UTC (Cumulative Loose Mass): vs untreated control; for Cumulative Loose Fruit: counted for 14 days
# Procedure: A study was conducted in a plantation in Costa Rica to compare the effects of single bunch-directed applications of: (1) untreated control (water sprayed); (2) AVG at 500 ppm (59.5 g) active ingredient (a.i.); (3) 20 ppm (2.4 g) a.i. of 1-MCP; (4) 67 ppm (8.0 g) a.i. of 1-MCP; and (5) 200 ppm (23.8 g) a.i. of 1-MCP. Total g a.i./ha for each treatment was calculated assuming 7 bunches per palm and 170 palms per ha. In this study, AVG and 1-MCP were provided in a formulation as AVG-HC1 and 1-MCP at concentrations of 20% and 1.3%, respectively.
# For each treatment, 27 palms were randomly selected covering about 15 hectares. The variety of plants used was a cross between Compact and Ghana. The plants were three years old at the time of treatment. A CO2 sprayer was used to spray all treatments (100 mL/bunch) to bunches with 1 to 4 loose fruits. The time required to spray each bunch was about 8 seconds at 20 psi using a 2.0 full cone nozzle. The treatments were applied once per bunch. Four, six, four, three and ten bunches per treatment were sprayed on Feb. 6, 13, 20, 27 and Mar. 3, 2015, respectively.
# Cumulative loose fruit (CLF) and cumulative loose mass (CLM) counts were determined on a daily basis for 14 days with the exception of days 2 and 9 after initial spray as measure to objectively quantify fruit abscission. An electronic balance was used to weigh all fruit. All loose fruit on the bunch, branches and on the ground was counted and weighted.
# oil palm fruit [3] = details: preharvest application to attached bunches; cited from earlier work
SMILES,Effect on oil content (oil palm fruit [1]),Effect on ripening of oil palm fruit (oil palm fruit [1]),Cumulative Loose Mass (oil palm fruit [2]; 20 ppm (2.4 g a.i./ha)) [g],% Difference with UTC (Cumulative Loose Fruit) (oil palm fruit [2]; 20 ppm (2.4 g a.i./ha)) [%],% Difference with UTC (Cumulative Loose Mass) (oil palm fruit [2]; 20 ppm (2.4 g a.i./ha)) [%],Cumulative Loose Fruit (oil palm fruit [2]; 20 ppm (2.4 g a.i./ha)),Cumulative Loose Mass (oil palm fruit [2]; 67 ppm (8.0 g a.i./ha)) [g],% Difference with UTC (Cumulative Loose Fruit) (oil palm fruit [2]; 67 ppm (8.0 g a.i./ha)) [%],% Difference with UTC (Cumulative Loose Mass) (oil palm fruit [2]; 67 ppm (8.0 g a.i./ha)) [%],Cumulative Loose Fruit (oil palm fruit [2]; 67 ppm (8.0 g a.i./ha)),Cumulative Loose Mass (oil palm fruit [2]; 200 ppm (23.8 g a.i./ha)) [g],% Difference with UTC (Cumulative Loose Fruit) (oil palm fruit [2]; 200 ppm (23.8 g a.i./ha)) [%],% Difference with UTC (Cumulative Loose Mass) (oil palm fruit [2]; 200 ppm (23.8 g a.i./ha)),Cumulative Loose Fruit (oil palm fruit [2]; 200 ppm (23.8 g a.i./ha)),"Effect on oil palm fruit drop (oil palm fruit [2]; preharvest bunch spray, 20, 67 and 200 ppm)",Increase of oil content (oil palm fruit [3]) [%]
"CC1=CC1 [1-MCP, 1-methylcyclopropene]",reduced oil content,delayed ripening,1465,6.7,17.1,138.8,1163,28.6,34.2,106.2,1149,29.6,36.0% and 35.0%,104.7,delayed palm oil fruit drop,–
"O=P(O)(O)CCCl [ethephon, 2-chloroethyl phosphonic acid]",–,–,–,–,–,–,–,–,–,–,–,–,–,–,–,7
